Literature values as cited in patent publication US12239660B2, “Therapeutic composition and methods” (Viscera Labs, Inc., priority 2018, dated 2025).

Details: in vivo, po

drug released in the small intestine: 12%
SMILES: O=C(O)c1cc(/N=N/c2ccc(S(=O)(=O)Nc3ccccn3)cc2)ccc1O [sulfasalazin]
